Data as given in patent US7968604B2, “Pharmaceutical composition for prevention and treatment of drug or alcohol addiction or bipolar disorder using sodium phenylbutyrate” (priority 2005, dated 2011).

Tests used:
Assay type in all cases: in vivo, Sprague-Dawley rats
[1] = system: locomotor activity; experiment: locomotor activity after sodium phenylbutyrate alone daily for 7 days; conditions: rats, 0.1 and 1.0 mg/kg i.p. once a day for 7 days, measured day 1 and day 7
Procedure: In order to examine effects of a pharmaceutical composition for prevention and treatment of drug or alcohol addiction or bipolar disorder containing sodium phenylbutyrate (PBA) in accordance with the present invention, the following animal experiments were carried out using Sprague-Dawley rats, weighing 250-275 g (upon arrival), (Samtaco Animal Breeding Company, Osan, Korea). A bank of 12 activity boxes was used to measure locomotor activity of animals (Kim & Vezina, 1998). Each box (22×43×33 cm) estimated locomotor activity from photo beam interruptions. Rats were placed in the activity boxes for a 1-hour habituation period. Then, these rats were administered with the respective dosages of the pharmaceutical composition and were immediately placed again in the activity boxes, and locomotor activity and rearing activity of rats were measured for additional 2 hours. Specifically, a computer was adapted to count locomotion of rats via photo beams installed on the top/bottom and right/left of the activity boxes, and such locomotion behavior of rats was confirmed for two hours. Rearing activity was also measured by counting upward/downward motion of rats via photo beams installed in the activity boxes. […] On day 1 and day 7 of drug administration, locomotor activity of animals was measured. […]

[2] = system: amphetamine-induced behavioral sensitization; experiment: amphetamine-induced behavioral sensitization (chronic) in rats
Procedure: In order to examine effects of a pharmaceutical composition for prevention and treatment of drug or alcohol addiction or bipolar disorder containing sodium phenylbutyrate (PBA) in accordance with the present invention, the following animal experiments were carried out using Sprague-Dawley rats, weighing 250-275 g (upon arrival), (Samtaco Animal Breeding Company, Osan, Korea). A bank of 12 activity boxes was used to measure locomotor activity of animals (Kim & Vezina, 1998). Each box (22×43×33 cm) estimated locomotor activity from photo beam interruptions. Rats were placed in the activity boxes for a 1-hour habituation period. Then, these rats were administered with the respective dosages of the pharmaceutical composition and were immediately placed again in the activity boxes, and locomotor activity and rearing activity of rats were measured for additional 2 hours. Specifically, a computer was adapted to count locomotion of rats via photo beams installed on the top/bottom and right/left of the activity boxes, and such locomotion behavior of rats was confirmed for two hours. Rearing activity was also measured by counting upward/downward motion of rats via photo beams installed in the activity boxes. […]

[3] = system: amphetamine-induced locomotor activity; experiment: amphetamine-induced (acute) locomotor activity in rats
Procedure: In order to examine effects of a pharmaceutical composition for prevention and treatment of drug or alcohol addiction or bipolar disorder containing sodium phenylbutyrate (PBA) in accordance with the present invention, the following animal experiments were carried out using Sprague-Dawley rats, weighing 250-275 g (upon arrival), (Samtaco Animal Breeding Company, Osan, Korea). A bank of 12 activity boxes was used to measure locomotor activity of animals (Kim & Vezina, 1998). Each box (22×43×33 cm) estimated locomotor activity from photo beam interruptions. Rats were placed in the activity boxes for a 1-hour habituation period. Then, these rats were administered with the respective dosages of the pharmaceutical composition and were immediately placed again in the activity boxes, and locomotor activity and rearing activity of rats were measured for additional 2 hours. […] Rearing activity was also measured by counting upward/downward motion of rats via photo beams installed in the activity boxes. […] Similar to Example 1, different concentrations (0.1, 1.0 and 10.0 mg/kg) of sodium phenylbutyrate were intraperitoneally injected (acute) alone or in combination with amphetamine (1.5 mg/kg) into rats, and locomotor activity of animals was measured for 2 hours. […]

[4] = system: cocaine-induced locomotor activity and rearing; experiment: cocaine-induced (acute) locomotor activity and rearing in rats
Procedure: In order to examine effects of a pharmaceutical composition for prevention and treatment of drug or alcohol addiction or bipolar disorder containing sodium phenylbutyrate (PBA) in accordance with the present invention, the following animal experiments were carried out using Sprague-Dawley rats, weighing 250-275 g (upon arrival), (Samtaco Animal Breeding Company, Osan, Korea).
A bank of 12 activity boxes was used to measure locomotor activity of animals (Kim & Vezina, 1998). Each box (22×43×33 cm) estimated locomotor activity from photo beam interruptions. Rats were placed in the activity boxes for a 1-hour habituation period. Then, these rats were administered with the respective dosages of the pharmaceutical composition and were immediately placed again in the activity boxes, and locomotor activity and rearing activity of rats were measured for additional 2 hours. […] Rearing activity was also measured by counting upward/downward motion of rats via photo beams installed in the activity boxes. […]
Different concentrations (0.1, 1.0, 5.0 and 10.0 mg/kg) of sodium phenylbutyrate were intraperitoneally injected (acute) alone or in combination with cocaine (15 mg/kg) into rats, and locomotor activity and rearing of animals were measured for 2 hours. […]

With O=C(O)CCCc1ccccc1 [sodium phenylbutyrate] the “changes in locomotor activity on administration of sodium phenylbutyrate alone” value [1] was “does not result in any significant changes in locomotor activity of animals”, the “effect on amphetamine-induced behavioral sensitization” value ([2]; rats, 0.1, 1.0 and 10.0 mg/kg with amphetamine 1.5 mg/kg four times at 2 to 3 day intervals, one-week withdrawal, amphetamine challenge) was “significant blocking effects against amphetamine-induced behavioral sensitization” and the “dose range at which blocking of behavioral sensitization was particularly strong” value ([2]; rats, repeated co-administration with amphetamine 1.5 mg/kg) was 0.1 to 1.0 mg/kg. The “effect on increase in amphetamine-induced locomotor activity” value ([3]; i.p. acute, 0.1, 1.0 and 10.0 mg/kg with amphetamine 1.5 mg/kg, measured 2 hours) was “decrease an increase in amphetamine-induced locomotor activity”, the “dose range at which effects on amphetamine-induced locomotor activity were similarly exhibited” value ([3]; i.p. acute, with amphetamine 1.5 mg/kg) was 0.1 to 10.0 mg/kg and the “effect on increase in cocaine-induced locomotor activity and rearing” value ([4]; i.p. acute, 0.1, 1.0, 5.0 and 10.0 mg/kg with cocaine 15 mg/kg, measured 2 hours) was “reduce an increase in cocaine-induced locomotor activity and rearing of rats in a dose-dependent manner”. The “dose at which effects on cocaine-induced locomotor activity and rearing were greatest” value ([4]; i.p. acute, with cocaine 15 mg/kg) was 1.0 mg/kg.
